Patent US4942155A, “Biosynthetic anthracyclines related to daunorubicin” (Farmitalia Carlo Erba S.p.A., priority 1986, dated 1990)
Values after ≈ are worked out from the molar mass of the structure shown.

What was measured:
[1] = Stability in acidic media; assay type: physicochemical
P388/S leukemia cells = test: In vitro cytotoxicity on P388 leukemia cells sensitive to doxorubicin; assay type: cell-based; settings: for IC50: Mus musculus, exposed for 48 hr then plated, read-out: ID50 (the source's name)
Source text: (§1) The cytotoxic activity of the new anthracyclines, FCE 24366 and FCE 24367 have been tested in vitro on cultured HeLa cells, and P388 leukemia cells sensitive (P 388/S) or resistant (P 388/R) to doxorubicin.
(§2) ^(b) Cells are exposed to the drugs for 48 hr then plated

P388/R leukemia cells = test: In vitro cytotoxicity on P388 leukemia cells resistant to doxorubicin; assay type: cell-based; settings: for IC50: Mus musculus, exposed for 48 hr then plated, read-out: ID50 (the source's name); for activity on P 388/R cell line: cross-resistant to most anthracyclines
Source text: as §1, §2

P388 ascitic leukemia = test: In vivo activity against P388 ascitic leukemia in mice; settings: for Toxic deaths: macroscopic autopic findings; for MST (T/C %): median survival time, % of untreated controls; for in vivo activity compared with daunorubicin: P388 ascitic leukemia in mice, at dosage levels several times lower
Experimental: ^(a) Mice were treated i.p. on day 1 after tumor cell inoculation.
^(b) Injected as 1:9 Tween 80:water suspension.
(§3) ^(c) Median survival time expressed as percentage of untreated
^(d) Evaluated on the basis of macroscopic autopic findings.

HeLa cells = test: In vitro cytotoxicity on cultured HeLa cells; assay type: cell-based; settings: for IC50: Homo sapiens, exposed for 24 hr then plated, read-out: ID50 (the source's name)
Source text: as §1
^(a) Cells are exposed to the drugs for 24 hr then plated

Gross leukemia = test: In vivo activity against Gross leukemia in mice; settings: for Toxic deaths: macroscopic autoptic findings; for MST (T/C %): median survival time, % of untreated controls
Experimental: ^(a) Mice were treated i.v. on day 1 after tumor cell i.v.
^(b) Injected as 1:9 Tween 80:water suspension
as §3
^(d) Evaluated on the basis of macroscopic autoptic findings.

[2] = tested on: Proteus morganii ATCC 25830; test: In vitro MIC, standard tube dilution; assay type: cell-based; settings: Morganella morganii, ATCC25830
Source text: (§4) The in vitro minimum inhibitory concentration (MIC) of FCE 24366, FCE 24367 and daunorubicin, determined for some microorganism using the standard tube dilution procedure, are reported in Table 4.

[3] = tested on: Staphylococcus aureus 209P; test: In vitro MIC, standard tube dilution; assay type: cell-based
Source text: as §4

[4] = tested on: Escherichia coli ATCC 11303; test: In vitro MIC, standard tube dilution; assay type: cell-based; settings: ATCC11303
Source text: as §4

[5] = tested on: Streptococcus faecalis ATCC 8043; test: In vitro MIC, standard tube dilution; assay type: cell-based; settings: Enterococcus faecalis, ATCC8043
Source text: as §4

Sarcina lutea ATCC 9341 = test: In vitro MIC, standard tube dilution; assay type: cell-based; settings: Micrococcus luteus, ATCC9341
Source text: as §4

[6] = tested on: Staphylococcus aureus 153; test: In vitro MIC, standard tube dilution; assay type: cell-based
Source text: as §4

[7] = tested on: Klebeiella pneumoniae ATCC 10031; test: In vitro MIC, standard tube dilution; assay type: cell-based
Source text: as §4

Escherichia coli 026B6 = test: In vitro MIC, standard tube dilution; assay type: cell-based
Source text: as §4

[8] = tested on: Streptococcus pyogenes ATCC 12384; test: In vitro MIC, standard tube dilution; assay type: cell-based; settings: ATCC12384
Source text: as §4

Solubility = assay type: physicochemical
[9] = acetone, dioxane, N,N-dimethylformamide, N,N-dimethylsulfoxide
[10] = chloroform, dichloromethane, ethyl acetate, lower alcohols
[11] = ethyl ether, n-hexane, petroleum ether and water

SMILES | stability [1] | cytotoxic dosage level compared with daunorubicin (P388/S leukemia cells) | IC50 (P388/S leukemia cells) [ng/mL] | IC50 (P388/R leukemia cells) [µg/mL] | activity on P 388/R cell line (P388/R leukemia cells) | in vivo activity compared with daunorubicin (P388 ascitic leukemia) | cytotoxic dosage level compared with daunorubicin (HeLa cells) | IC50 (HeLa cells) [ng/mL] | MIC [2] [µg/mL] | MIC [3] [µg/mL] | MIC [4] [µg/mL] | MIC [5] [µg/mL] | MIC (Sarcina lutea ATCC 9341) [µg/mL] | MIC [6] [µg/mL] | MIC [7] [µg/mL] | MIC (Escherichia coli 026B6) [µg/mL] | MIC [8] [µg/mL] | solubility (Solubility; [9]) | solubility (Solubility; [10]) | solubility (Solubility; [11]) | also measured
COc1cccc2c1C(=O)c1c(O)c3c(c(O)c1C2=O)C[C@@](O)(C(C)=O)C[C@@H]3O[C@H]1C[C@@H]2NC(C3C(=O)N(C)C(=O)N(C)C3=O)C(C)OC(CC(C)O)O[C@@H]2[C@H](C)O1 (some centres unmarked) [FCE 24366] | unstable | several times lower than those of daunorubicin | 0.036 (≈ 4.45e-05 µM) | 0.0012 (≈ 0.00148 µM) | high activity | as active as daunorubicin | several times lower than those of daunorubicin | 0.09 (≈ 0.000111 µM) | 12.5 (≈ 15.4 µM) | 0.78 (≈ 0.963 µM) | 0.39 (≈ 0.482 µM) | 12.5 (≈ 15.4 µM) | 0.19 (≈ 0.235 µM) | 0.78 (≈ 0.963 µM) | 0.78 (≈ 0.963 µM) | 1.56 (≈ 1.93 µM) | 3.12 (≈ 3.85 µM) | soluble | slightly soluble | barely soluble or insoluble | Toxic deaths (P388 ascitic leukemia; 0.012 mg/Kg i.p. on day 1): 0/10; MST (T/C %) (P388 ascitic leukemia; 0.012 mg/Kg i.p. on day 1): 130%; Toxic deaths (P388 ascitic leukemia; 0.025 mg/Kg i.p. on day 1): 0/10; MST (T/C %) (P388 ascitic leukemia; 0.025 mg/Kg i.p. on day 1): 135%; Toxic deaths (P388 ascitic leukemia; 0.05 mg/Kg i.p. on day 1): 0/10; MST (T/C %) (P388 ascitic leukemia; 0.05 mg/Kg i.p. on day 1): 150%; Toxic deaths (P388 ascitic leukemia; 0.1 mg/Kg i.p. on day 1): 1/10; MST (T/C %) (P388 ascitic leukemia; 0.1 mg/Kg i.p. on day 1): 165%; Toxic deaths (Gross leukemia; 0.13 mg/Kg i.v. on day 1): 0/9; MST (T/C %) (Gross leukemia; 0.13 mg/Kg i.v. on day 1): 117%; Toxic deaths (Gross leukemia; 0.20 mg/Kg i.v. on day 1): 0/8; MST (T/C %) (Gross leukemia; 0.20 mg/Kg i.v. on day 1): 192%; Toxic deaths (Gross leukemia; 0.30 mg/Kg i.v. on day 1): 2/9; MST (T/C %) (Gross leukemia; 0.30 mg/Kg i.v. on day 1): 150%; activity against Gross leukemia compared with daunorubicin (Gross leukemia; Gross leukemia in mice): activity comparable with that of daunorubicin at remarkably lower dosages
COc1cccc2c1C(=O)c1c(O)c3c(c(O)c1C2=O)C[C@@](O)(C(C)=O)C[C@@H]3O[C@H]1C[C@@H]2NC(C3C(=O)NC(=S)NC3=O)C(C)OC(CC(C)O)O[C@@H]2[C@H](C)O1 (some centres unmarked) [FCE 24367] | unstable | several times lower than those of daunorubicin | 0.003 (≈ 3.76e-06 µM) | 0.0038 (≈ 0.00476 µM) | high activity | as active as daunorubicin | several times lower than those of daunorubicin | 0.7 (≈ 0.000877 µM) | 100 (≈ 125 µM) | 6.25 (≈ 7.83 µM) | 3.12 (≈ 3.91 µM) | 100 (≈ 125 µM) | 0.78 (≈ 0.978 µM) | 6.25 (≈ 7.83 µM) | 25 (≈ 31.3 µM) | 12.5 (≈ 15.7 µM) | 6.25 (≈ 7.83 µM) | soluble | slightly soluble | barely soluble or insoluble | Toxic deaths (P388 ascitic leukemia; 0.3 mg/Kg i.p. on day 1): 0/10; MST (T/C %) (P388 ascitic leukemia; 0.3 mg/Kg i.p. on day 1): 145%; Toxic deaths (P388 ascitic leukemia; 0.45 mg/Kg i.p. on day 1): 1/10; MST (T/C %) (P388 ascitic leukemia; 0.45 mg/Kg i.p. on day 1): 150%; Toxic deaths (P388 ascitic leukemia; 0.68 mg/Kg i.p. on day 1): 1/10; MST (T/C %) (P388 ascitic leukemia; 0.68 mg/Kg i.p. on day 1): 155%
COc1cccc2c1C(=O)c1c(O)c3c(c(O)c1C2=O)C[C@@](O)(C(C)=O)C[C@@H]3O[C@H]1C[C@H](N)[C@H](O)[C@H](C)O1 [Daunorubicin, daunorubicin] |  |  | 9.5 (≈ 0.018 µM) | 0.75 (≈ 1.42 µM) |  |  |  | 19 (≈ 0.036 µM) | > 100 | 6.25 (≈ 11.8 µM) | 3.12 (≈ 5.91 µM) | > 100 | 1.56 (≈ 2.96 µM) | 25 (≈ 47.4 µM) | > 100 | 6.25 (≈ 11.8 µM) | 3.12 (≈ 5.91 µM) |  |  |  | Toxic deaths (P388 ascitic leukemia; 2.9 mg/Kg i.p. on day 1): 0/10; MST (T/C %) (P388 ascitic leukemia; 2.9 mg/Kg i.p. on day 1): 160%; Toxic deaths (P388 ascitic leukemia; 4.4 mg/Kg i.p. on day 1): 7/10; MST (T/C %) (P388 ascitic leukemia; 4.4 mg/Kg i.p. on day 1): 150%; Toxic deaths (Gross leukemia; 10 mg/Kg i.v. on day 1): 0/9; MST (T/C %) (Gross leukemia; 10 mg/Kg i.v. on day 1): 183%; Toxic deaths (Gross leukemia; 15 mg/Kg i.v. on day 1): 0/9; MST (T/C %) (Gross leukemia; 15 mg/Kg i.v. on day 1): 217%; Toxic deaths (Gross leukemia; 22.5 mg/Kg i.v. on day 1): 9/9; MST (T/C %) (Gross leukemia; 22.5 mg/Kg i.v. on day 1): 83%
